In patent US20240217951A1, “PCSK9 INHIBITORS AND METHODS OF USE THEREOF” (AstraZeneca AB, priority 2022, published 2024):

How the values were obtained:
[1] = molecular target: GSK3β (Glycogen synthase kinase-3 beta) (Homo sapiens, UniProt P49841); assay: Assay 6 - GSK3β assay (ThermoFisher Z-Lyte); type: biochemical; details: geometric mean; ATP Conc: 10 μM; read-out: Assay 6 (GSK3β FRET-Z-Lyte CR) GMean IC50 (μM) ATP Conc: 10
Method in brief: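 Z-Lyte fluorescence kinase assay with 0.22-0.92 ng GSK3β and 2 μM Ser/Thr 09 peptide in 50 mM HEPES pH 7.5, 10 mM MgCl2, 1 mM EGTA, 0.01% BRIJ-35. Kinase reaction 60 min at room temperature, then 60 min development. 10-point 3-fold titration from 10 μM in 1% DMSO, fitted to a sigmoidal dose-response curve.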

PCSK9 [2] = molecular target: T1, PCSK9 (Homo sapiens, UniProt Q8NBP7, G670E/V474I); assay: Assay 3 - PCSK9 LDL-C uptake assay in HepG2 cells; type: cell-based; set-up: TEV cleavage site (C); His6 (C); host or cells: added to HepG2 cells (ATCC #HB-8065); details: 125 nM PCSK9, pHrodo Red-LDL, read-out: Assay 3 LDL uptake potency
T1 sequence (Q8NBP7 with tags, fused parts or gaps V474I/G670E): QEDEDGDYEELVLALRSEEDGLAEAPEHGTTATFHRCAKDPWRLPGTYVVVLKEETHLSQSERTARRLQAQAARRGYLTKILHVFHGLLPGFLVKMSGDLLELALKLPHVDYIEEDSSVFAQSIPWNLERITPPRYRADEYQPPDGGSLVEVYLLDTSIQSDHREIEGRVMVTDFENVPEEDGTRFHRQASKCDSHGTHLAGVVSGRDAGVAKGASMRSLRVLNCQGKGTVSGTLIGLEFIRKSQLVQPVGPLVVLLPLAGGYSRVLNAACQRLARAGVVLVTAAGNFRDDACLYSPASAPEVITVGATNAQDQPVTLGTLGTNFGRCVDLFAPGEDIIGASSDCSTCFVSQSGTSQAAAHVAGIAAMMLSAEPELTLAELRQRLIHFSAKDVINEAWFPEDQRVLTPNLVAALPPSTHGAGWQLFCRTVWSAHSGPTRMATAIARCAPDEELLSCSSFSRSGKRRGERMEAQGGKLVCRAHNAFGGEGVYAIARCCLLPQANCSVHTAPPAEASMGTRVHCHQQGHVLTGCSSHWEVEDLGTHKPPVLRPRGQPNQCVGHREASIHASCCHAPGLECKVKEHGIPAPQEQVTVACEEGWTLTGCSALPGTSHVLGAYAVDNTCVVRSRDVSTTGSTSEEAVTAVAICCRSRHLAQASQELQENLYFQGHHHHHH
Excerpt: Assay 3—PCSK9 LDL-C Uptake Assay
This assay measures for PCSK9 antagonist activity based on a test compound's capacity to restore LDL-C-uptake in HepG2 cells. The assay is based on exogenous PCSK9 and LDL-C complexed with a pH-sensitive dye. Outside the cells, at neutral pH, the pHrodo Red-LDL is dimly fluorescent but upon LDLR mediated endocytosis it fluoresces brightly. PCSK9 traffics the LDLR to intracellular degradation and reduces uptake of LDL-C. Inhibition of PCSK9 reduces LDLR degradation and the increased LDL-C uptake is quantified by fluorescence microscopy.
Preparation of Assay Reagents
Cell medium: MEM supplemented with 10% FBS, 1×NEAA and Sodium Pyruvate Assay medium: OptiMem supplemented with penicillin/streptomycin
Cells: HepG2 (ATCC #HB-8065)
Step by Step Protocol for Running the Assay:
• 1. Cryopreserved HepG2 cells were thawed in assay medium and centrifuged for 5 min at 250 g. Supernatant was discarded and the cell pellet resuspended in cell medium and counted with a Nucleocounter. Cells were again centrifuged 5 min at 250 g and the pellet was resuspended to 500000 cells/mL in assay medium. • 2. 20 μL of above cell mix was dispensed into black pclear TC treated 384 well plates with Multidrop Combi and left at room temperature for 20 minutes. • 3. Plates were incubated at 37° C., 5% CO2 for 24 h
• 1. Test compounds were prepared in concentration response in DMSO with a half-log dilution factor in DMSO in Echo 384 LDV plates starting at 10 mM. • 2. 30 nL of above test compounds were dispensed with Echo 655 to cells for a top concentration of 10 μM • 3. 10 μL PCSK9 in assay medium was dispensed to cells with Multidrop Combi for 125 nM final concentration in the wells. • 4. Plates were incubated at 37° C., 5% CO2 for 24 h
• 1. 10 μL pHrodo Red-LDL in assay medium was dispensed to cells with Multidrop Combi for 6 μg/mL • 2. Plates were incubated at 37° C., 5% CO2 and imaged with the Incucyte S3 after 4 h and 24 h
Image data was processed using Incucyte 2021, a software to identify cells and red fluorescent intensity. Screener was used to further process data. Data was normalized as % effect of the signal between median values of the on-plate controls of DMSO and 100 nM Evolocumab according to the formula % effect=−100*(x−DMSO)/(Evolocumab−DMSO) where x equals the measured signal. Concentration response data of the normalized values were fitted using a four-parameter logistic fit.

PCSK9 [3] = molecular target: T1, PCSK9; assay: biochemical
[4] = molecular target: T2, potassium ion channel hERG (human Ether-á-go-go-Related Gene) (Homo sapiens, UniProt Q12809); assay: Assay 5 - hERG assay (SyncroPatch 384PE patch clamp, CHO cells); type: cell-based; details: geometric mean; CHO cells over-expressing hERG; read-out: Assay 5 (hERG Hu CHO IF EPh CR-Syncro) GMean IC50
T2 construct: expressed in transfected cells; host or cells: Chinese hamster ovary K1 (CHO)
T2 sequence (Q12809 whole entry): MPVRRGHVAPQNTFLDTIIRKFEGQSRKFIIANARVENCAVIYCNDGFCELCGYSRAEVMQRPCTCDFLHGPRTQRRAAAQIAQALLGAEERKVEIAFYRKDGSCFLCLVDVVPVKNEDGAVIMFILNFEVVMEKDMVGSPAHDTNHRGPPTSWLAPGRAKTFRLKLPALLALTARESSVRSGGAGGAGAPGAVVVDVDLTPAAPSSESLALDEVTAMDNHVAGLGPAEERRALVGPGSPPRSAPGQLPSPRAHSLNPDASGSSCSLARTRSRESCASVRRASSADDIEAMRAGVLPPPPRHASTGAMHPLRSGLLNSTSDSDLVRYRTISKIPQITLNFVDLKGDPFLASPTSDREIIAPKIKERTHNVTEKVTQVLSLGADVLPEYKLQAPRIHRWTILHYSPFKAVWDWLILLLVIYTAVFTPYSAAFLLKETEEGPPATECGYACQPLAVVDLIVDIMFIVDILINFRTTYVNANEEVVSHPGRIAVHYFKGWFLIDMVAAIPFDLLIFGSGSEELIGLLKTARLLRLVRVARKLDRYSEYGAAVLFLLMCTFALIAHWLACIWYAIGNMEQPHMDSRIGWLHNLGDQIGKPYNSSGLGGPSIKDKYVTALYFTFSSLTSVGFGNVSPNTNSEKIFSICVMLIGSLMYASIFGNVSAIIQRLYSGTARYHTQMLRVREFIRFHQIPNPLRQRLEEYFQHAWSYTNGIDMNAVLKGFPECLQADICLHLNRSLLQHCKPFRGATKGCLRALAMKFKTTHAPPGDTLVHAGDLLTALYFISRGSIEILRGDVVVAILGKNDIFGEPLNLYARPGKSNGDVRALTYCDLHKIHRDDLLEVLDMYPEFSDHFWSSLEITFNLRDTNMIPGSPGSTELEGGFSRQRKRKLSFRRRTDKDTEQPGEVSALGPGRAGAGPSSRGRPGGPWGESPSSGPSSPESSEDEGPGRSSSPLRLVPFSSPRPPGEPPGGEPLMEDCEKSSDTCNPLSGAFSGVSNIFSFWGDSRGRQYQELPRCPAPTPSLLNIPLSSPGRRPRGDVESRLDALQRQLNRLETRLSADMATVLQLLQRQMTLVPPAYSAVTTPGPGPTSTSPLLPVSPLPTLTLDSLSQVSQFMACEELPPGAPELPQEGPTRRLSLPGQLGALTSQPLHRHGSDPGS
Method in brief: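 Automated high-throughput patch clamp on CHO-K1 cells overexpressing hERG at room temperature, KF/KCl internal with escin, NMDG-containing external at pH 7.4. Six-point cumulative compound addition, 0.33% DMSO final; wells kept only with seal >30 MΩ, Z′ >0.4 and current >0.2 nA.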

Chain of GSK3β (Glycogen synthase kinase-3 beta) (P49841 whole entry): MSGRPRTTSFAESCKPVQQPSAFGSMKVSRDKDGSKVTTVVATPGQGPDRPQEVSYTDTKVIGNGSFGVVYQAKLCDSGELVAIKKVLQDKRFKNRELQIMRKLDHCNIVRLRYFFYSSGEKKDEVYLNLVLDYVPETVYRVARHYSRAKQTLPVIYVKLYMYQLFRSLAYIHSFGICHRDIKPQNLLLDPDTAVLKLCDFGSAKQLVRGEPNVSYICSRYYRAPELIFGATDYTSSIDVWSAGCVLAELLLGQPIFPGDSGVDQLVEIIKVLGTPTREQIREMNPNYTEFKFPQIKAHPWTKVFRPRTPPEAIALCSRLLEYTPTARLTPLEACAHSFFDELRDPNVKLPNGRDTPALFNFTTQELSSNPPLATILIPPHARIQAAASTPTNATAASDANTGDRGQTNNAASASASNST

Compound `Cc1ncc(N[C@H]2CC[C@H](Nc3ccc(-n4c(=O)n(C)c5ccccc54)cn3)C2)nc1C` [Example 11, 1-(6-(((1S,3S)-3-((5,6-Dimethylpyrazin-2-yl)amino)cyclopentyl)amino)pyridin-3-yl)-3-methyl-1,3-dihydro-2H-benzo[d]imidazol-2-one] has an IC50 [1] greater than 10 µM, an EC50 (PCSK9 [2]) of 300 nM and an IC50 (PCSK9 [3]) of 3.2 nM. The IC50 [4] was 20200 nM.
Compound `Cn1c(=O)n(-c2ccc(N[C@H]3CC[C@H](Nc4cnc(C5CC5)cn4)C3)nc2)c2ncccc21` [Example 105, 3-(6-(((1S,3S)-3-((5-Cyclopropylpyrazin-2-yl)amino)cyclopentyl)amino)pyridin-3-yl)-1-methyl-1,3-dihydro-2H-imidazo[4,5-b]pyridin-2-one] has an IC50 [1] greater than 10 µM, an EC50 (PCSK9 [2]) of 800 nM and an IC50 (PCSK9 [3]) of 6.4 nM. It also gave an IC50 [4] of 20400 nM.
`COc1cccn(-c2ccc(N[C@H]3CC[C@H](Nc4cnc(C)cn4)C3)nc2)c1=O` (racemic) [Example 170, rel-3-Methoxy-6′-(((1R,3R)-3-((5-methylpyrazin-2-yl)amino)cyclopentyl)amino)-2H-[1,3′-bipyridin]-2-one] gave an IC50 [1] of 7 µM, an EC50 (PCSK9 [2]) of 200 nM and an IC50 (PCSK9 [3]) of 11 nM. For the same compound, the IC50 [4] was greater than 40100 nM.
With `Cn1c(=O)n(-c2ccc(N[C@H]3CC[C@H](Nc4cnc(Cl)cn4)C3)nc2)c2ncccc21` [Example 98, 3-(6-(((1S,3S)-3-((5-Chloropyrazin-2-yl)amino)cyclopentyl)amino)pyridin-3-yl)-1-methyl-1,3-dihydro-2H-imidazo[4,5-b]pyridin-2-one] the IC50 [1] was greater than 10 µM, the EC50 (PCSK9 [2]) was 800 nM and the IC50 (PCSK9 [3]) was 4.2 nM. The IC50 [4] was 10800 nM.
In the case of `Cc1cnc(N[C@H]2CC[C@H](Nc3ccc(-n4c(=O)n(C)c5cc(C#N)ccc54)cn3)C2)cn1` [Example 216, 3-Methyl-1-(6-(((1S,3S)-3-((5-methylpyrazin-2-yl)amino)cyclopentyl)amino)pyridin-3-yl)-2-oxo-2,3-dihydro-1H-benzo[d]imidazole-5-carbonitrile], the IC50 [1] is reported as greater than 10 µM, the EC50 (PCSK9 [2]) is reported as 300 nM and the IC50 (PCSK9 [3]) is reported as 2.8 nM. It also gave an IC50 [4] of 7300 nM.
`Cc1cnc(N[C@H]2CC[C@H](Nc3ccc(-n4c(=O)n(C)c5cc(C#N)cnc54)cn3)C2)cn1` [Example 218, 1-Methyl-3-(6-(((1S,3S)-3-((5-methylpyrazin-2-yl)amino)cyclopentyl)amino)pyridin-3-yl)-2-oxo-2,3-dihydro-1H-imidazo[4,5-b]pyridine-6-carbonitrile] gave an IC50 [1] greater than 10 µM, an EC50 (PCSK9 [2]) of 300 nM and an IC50 (PCSK9 [3]) of 5.4 nM. The IC50 [4] was 22500 nM.
Compound `Cc1ncc(N[C@H]2CC[C@H](Nc3ccc(-n4cccc(Cl)c4=O)cn3)C2)nc1C` [Example 19, 3-Chloro-6′-(((1S,3S)-3-((5,6-dimethylpyrazin-2-yl)amino)cyclopentyl)amino)-2H-[1,3′-bipyridin]-2-one] has an IC50 [1] greater than 10 µM, an EC50 (PCSK9 [2]) of 100 nM and an IC50 (PCSK9 [3]) of 5.3 nM. For the same compound, the IC50 [4] was 24600 nM.
In the case of `Cc1cnc(N[C@H]2CC[C@H](Nc3ccc(-n4cc(-c5nnn[nH]5)ccc4=O)cn3)C2)cn1` [Example 177, 6′-(((1S,3S)-3-((5-Methylpyrazin-2-yl)amino)cyclopentyl)amino)-5-(1H-tetrazol-5-yl)-2H-[1,3′-bipyridin]-2-one], the IC50 [1] is reported as greater than 10 µM, the EC50 (PCSK9 [2]) is reported as 200 nM and the IC50 (PCSK9 [3]) is reported as 5.4 nM. For the same compound, the IC50 [4] was greater than 40100 nM.
`COc1cccn(-c2ccc(N[C@H]3CC[C@H](Nc4cnc(C)c(C)n4)C3)nc2)c1=O` [Example 12, 6′-(((1S,3S)-3-((5,6-Dimethylpyrazin-2-yl)amino)cyclopentyl)amino)-3-methoxy-2H-[1,3′-bipyridin]-2-one] showed an IC50 [1] greater than 10 µM, an EC50 (PCSK9 [2]) of 100 nM and an IC50 (PCSK9 [3]) of 13 nM. It also gave an IC50 [4] greater than 40000 nM.
`O=c1c(Cl)cccn1-c1ccc(N[C@H]2CC[C@H](Nc3cnc(OC(F)F)cn3)C2)nc1` [Example 85, 3-Chloro-6′-(((1S,3S)-3-((5-(difluoromethoxy)pyrazin-2-yl)amino)cyclopentyl)amino)-2H-[1,3′-bipyridin]-2-one] was tested, and the IC50 [1] was greater than 10 µM, the EC50 (PCSK9 [2]) was 200 nM and the IC50 (PCSK9 [3]) was 4.3 nM. The IC50 [4] was 5600 nM.
Compound `Cc1cnc(N[C@H]2CC[C@H](Nc3ccc(-n4cc(-c5c[nH]nn5)ccc4=O)cn3)C2)cn1` [Example 209, 6′-(((1S,3S)-3-((5-Methylpyrazin-2-yl)amino)cyclopentyl)amino)-5-(1H-1,2,3-triazol-4-yl)-2H-[1,3′-bipyridin]-2-one] has an IC50 [1] greater than 10 µM, an EC50 (PCSK9 [2]) of 200 nM and an IC50 (PCSK9 [3]) of 6.3 nM. For the same compound, the IC50 [4] was greater than 40100 nM.
Work on `O=c1ccc2cccnc2n1-c1ccc(N[C@H]2CC[C@H](Nc3cnc(OC(F)F)cn3)C2)nc1` [Example 87, 1-(6-(((1S,3S)-3-((5-(Difluoromethoxy)pyrazin-2-yl)amino)cyclopentyl)amino)pyridin-3-yl)-1,8-naphthyridin-2 (1H)-one] yielded an IC50 [1] greater than 10 µM, an EC50 (PCSK9 [2]) of 100 nM and an IC50 (PCSK9 [3]) of 9.2 nM. It also gave an IC50 [4] of 18100 nM.
`Cc1ncc(N[C@H]2CC[C@H](Nc3ccc(-n4c(=O)ccc5cccnc54)cn3)C2)nc1C` [Example 20, 1-(6-(((1S,3S)-3-((5,6-Dimethylpyrazin-2-yl)amino)cyclopentyl)amino)pyridin-3-yl)-1,8-naphthyridin-2 (1H)-one] showed an IC50 [1] greater than 10 µM, an EC50 (PCSK9 [2]) of 100 nM and an IC50 (PCSK9 [3]) of 17 nM. For the same compound, the IC50 [4] was greater than 40000 nM.
In the case of `Cc1cnc(N[C@H]2CC[C@H](Nc3ccc(-n4c(=O)n(C)c5ccc(C#N)cc54)cn3)C2)cn1` [Example 215, 1-Methyl-3-(6-(((1S,3S)-3-((5-methylpyrazin-2-yl)amino)cyclopentyl)amino)pyridin-3-yl)-2-oxo-2,3-dihydro-1H-benzo[d]imidazole-5-carbonitrile], the IC50 [1] is reported as greater than 10 µM, the EC50 (PCSK9 [2]) is reported as 100 nM and the IC50 (PCSK9 [3]) is reported as 1 nM. For the same compound, the IC50 [4] was 16000 nM.
`O=c1[nH]c2ccccc2n1-c1ccc(N[C@H]2CC[C@H](Nc3cnc(Cl)cn3)C2)nc1` [Example 31, 1-(6-(((1S,3S)-3-((5-Chloropyrazin-2-yl)amino)cyclopentyl)amino)pyridin-3-yl)-1,3-dihydro-2H-benzo[d]imidazol-2-one] was tested, and the IC50 [1] was greater than 10 µM, the EC50 (PCSK9 [2]) was 200 nM and the IC50 (PCSK9 [3]) was 3.7 nM. For the same compound, the IC50 [4] was 8200 nM.
`Cc1cnc(N[C@H]2CC[C@H](Nc3ccc(-n4cccc(-c5cn[nH]c5)c4=O)cn3)C2)cn1` [Example 204, 6′-(((1S,3S)-3-((5-Methylpyrazin-2-yl)amino)cyclopentyl)amino)-3-(1H-pyrazol-4-yl)-2H-[1,3′-bipyridin]-2-one] was tested, and the IC50 [1] was greater than 10 µM, the EC50 (PCSK9 [2]) was 400 nM and the IC50 (PCSK9 [3]) was 3.5 nM. For the same compound, the IC50 [4] was greater than 40100 nM.
For `Cc1ncc(N[C@H]2CC[C@H](Nc3ccc(-n4c(=O)n(C)c5cccnc54)cn3)C2)nc1C` [Example 21, 3-(6-(((1S,3S)-3-((5,6-Dimethylpyrazin-2-yl)amino)cyclopentyl)amino)pyridin-3-yl)-1-methyl-1,3-dihydro-2H-imidazo[4,5-b]pyridin-2-one], the IC50 [1] was greater than 10 µM, the EC50 (PCSK9 [2]) was 100 nM and the IC50 (PCSK9 [3]) was 11 nM. The IC50 [4] was 33200 nM.
With `Cc1cnc(N[C@H]2CC[C@H](Nc3ccc(-n4nccc(Cl)c4=O)cn3)C2)cn1` [Example 232, 4-Chloro-2-(6-(((1S,3S)-3-((5-methylpyrazin-2-yl)amino)cyclopentyl)amino)pyridin-3-yl)pyridazin-3 (2H)-one] the IC50 [1] was greater than 10 µM, the EC50 (PCSK9 [2]) was 500 nM and the IC50 (PCSK9 [3]) was 3.7 nM. It also gave an IC50 [4] of 39900 nM.
